Broadly, the solubility (kinetic) is solubility judged after dilution from a stock solution rather than from solid.

Here are results for 52 compounds from PubChem BioAssay AID1996.

SMILES strings stand for the structures. ≈ marks a conversion by molar mass, not a printed value.

The conditions of the series: buffer; pH 7.4; 200.0 µM.
As to `CCOC(=O)Cn1nc(C)cc1NC(=O)c1ccncc1`, the kinetic solubility is more than 43.2 µg/mL. For `Cc1ccc(Nc2ncnc(N)n2)cc1` the value was 29.5 µg/mL (≈ 147 µM); for `Cc1cccc(S(=O)(=O)NCCc2ccccc2)c1`, 35.7 µg/mL (≈ 130 µM); for `Cc1ccc(-c2c[nH]c(=S)n2-c2ccccc2)cc1`, 6 µg/mL (≈ 22.5 µM). With `COC(=O)c1c(C)[nH]c(C(=O)C(C)OC(=O)c2ccco2)c1C` (configuration not stated), the solubility (kinetic) amounted to 4.5 µg/mL (≈ 14.1 µM). Take `CS(=O)(=O)N(CC(=O)N1CCOCC1)c1cccc([N+](=O)[O-])c1`: the solubility (kinetic) is more than 51.5 µg/mL. `COc1ccc(Cl)cc1NC(=O)Cn1c(C)csc1=O` displayed a kinetic solubility of 18.3 µg/mL (≈ 58.5 µM).

In turn, `CC(=O)N=c1sccn1CC(O)c1ccccc1` (configuration not stated) registered a kinetic solubility of more than 39.3 µg/mL. As for `Cc1cc(C)c(S(=O)(=O)c2ccc(F)cc2C)c(=O)[nH]1`, the figure is more than 44.3 µg/mL. `COc1ccccc1NC(=O)[C@@H]1CCCN1S(=O)(=O)c1ccc(Cl)cc1` yielded a solubility (kinetic) of 32.4 µg/mL (≈ 82.1 µM). For `COc1c(C(=O)Nc2ccc(Br)cn2)ccc2ccccc12` the value was less than 0.4 µg/mL; for `CCOC(=O)C1CCN(S(=O)(=O)c2c(C)noc2C)CC1`, 26.8 µg/mL (≈ 84.7 µM). For the compound `Cc1cc(C)nc(Oc2ccc(Br)cc2)n1`, the solubility (kinetic) was determined as 35.5 µg/mL (≈ 127 µM).

On to `COc1cccc(CN(C)Cc2c(O)ccc3ccccc23)c1`, for which the kinetic solubility was found to be 29.6 µg/mL (≈ 96.3 µM). As for `Cc1ccc(N=Cc2c(O)c3ccccc3n(C)c2=O)cc1`, the figure is 3.3 µg/mL (≈ 11.3 µM); as for `Cc1cc(C)cc(NS(=O)(=O)c2ccc(F)cc2)c1`, more than 41.9 µg/mL; as for `Cn1ncc(Br)c1C(=O)N1CCCC1`, more than 38.7 µg/mL. For the compound `O=C(COC(=O)c1ccc([N+](=O)[O-])cc1)NC12CC3CC(CC(C3)C1)C2`, the kinetic solubility turned out to be 3.3 µg/mL (≈ 9.21 µM). As for `Cc1ccc(C)c(Nc2nc(-c3cccnc3)cs2)c1`, the solubility (kinetic) was 0.9 µg/mL (≈ 3.2 µM). As for `COC(=O)c1ccc2nccnc2c1`, the figure is 22.7 µg/mL (≈ 121 µM); as for `O=C(/C=C/Nc1ccc(F)c(Cl)c1)c1ccccc1`, 0.7 µg/mL (≈ 2.54 µM); as for `O=C(COC(=O)c1ccco1)NCc1ccccc1Cl`, more than 44.1 µg/mL.

`CCc1noc(C)c1C(=O)NCCc1ccc(Cl)cc1` had a solubility (kinetic) of more than 43.9 µg/mL. On to `CCCOc1ccc(/C=C/C(=O)N2CCOCC2)cc1`, for which the kinetic solubility was more than 41.3 µg/mL. For `CS(=O)(=O)N(CC(=O)N1CCOCC1)c1cccc(F)c1` the value was 40.7 µg/mL (≈ 129 µM); for `COc1ccc(-c2cc(C(=O)N(C)Cc3nc4ccccc4c(=O)[nH]3)c3ccccc3n2)cc1OC`, 13.2 µg/mL (≈ 27.5 µM). The compound `CCc1ccc(NC(=O)Cn2cnc([N+](=O)[O-])c2)cc1` registered a kinetic solubility of 23 µg/mL (≈ 83.9 µM). As for `O=c1[nH]cccc1-c1nc2cc(Cl)ccc2n1Cc1ccccc1`, the figure is 5.7 µg/mL (≈ 17 µM); as for `Cc1ccc(S(=O)(=O)N2CCN(C(=O)CNC(=O)c3ccc(Cl)cc3)CC2)cc1`, 8.1 µg/mL (≈ 18.6 µM); as for `COC(=O)c1ccccc1NC(=O)CSc1nc2ncccc2[nH]1`, 8.7 µg/mL (≈ 25.4 µM). For `COc1cc(C(F)(F)F)c(C(=O)N(C)Cc2cccc(Cl)c2)cn1`, the kinetic solubility amounted to 43.6 µg/mL (≈ 122 µM). Compound `Cc1ccccc1NC(=O)C(C)N1C(=O)c2ccccc2C1=O` (configuration not stated) came in with a kinetic solubility of more than 46.3 µg/mL. As for `COc1ccccc1NC(=S)NC(C)C(c1cccs1)N1CCOCC1` (configuration not stated), the figure is more than 58.7 µg/mL; as for `Cc1cc(C(C)(C)C)cc(C)c1COC(=O)CN1C(=O)NC2(CCCC2)C1=O`, 13.3 µg/mL (≈ 34.4 µM); as for `COc1ccc2nc(COC(=O)c3cccs3)c(C(C)=O)[n+]([O-])c2c1`, 1.6 µg/mL (≈ 4.46 µM). For `O=C(NCCC1=CCCCC1)c1c(O)nc2ccccn2c1=O` the value was 8.7 µg/mL (≈ 27.8 µM).

In turn, `Cc1cc(=O)oc2cc(NC(=O)Cc3ccccc3[N+](=O)[O-])ccc12` came in with a solubility (kinetic) of 0.9 µg/mL (≈ 2.66 µM). Compared with the last compound, the solubility kinetic is about 9.7-fold lower. In turn, `CC(C)CNC(=O)[C@@H]1CSC2c3ccccc3C(=O)N21` (some centres not stated) registered a kinetic solubility of more than 43.6 µg/mL.

The compound `COc1ccc(-c2ocnc2C(=O)Nc2ccc3c(c2)CCC3)cc1` showed a solubility (kinetic) of 1.7 µg/mL (≈ 5.08 µM). Compound `COc1ccc(OCCCN2CCc3ccccc3C2)cc1.Cl` returned a kinetic solubility of 36.5 µg/mL. As for `COc1ccc(/C=N/NC(=O)c2cccnc2)cc1`, the figure is more than 38.3 µg/mL; as for `CNC(=O)CSc1nnc(-c2ccco2)n1-c1ccccc1`, more than 47.2 µg/mL. For `O=C(NC12CC3CC(CC(C3)C1)C2)c1cc([N+](=O)[O-])ccc1Cl` the value was 0.6 µg/mL (≈ 1.79 µM); for `CN(CC(=O)NC1CCCC1)S(=O)(=O)c1cccc(Cl)c1`, 7.6 µg/mL (≈ 23 µM); for `Cc1c(Cl)cccc1NC(=O)C1CCN(c2cnccn2)CC1`, 2.1 µg/mL (≈ 6.35 µM). Regarding `Clc1ccccc1CSc1nncn1-c1cccnc1`, the kinetic solubility is more than 45.4 µg/mL. As for `O=[N+]([O-])c1ccc(Cl)cc1N1CCOCC1`, the figure is more than 36.4 µg/mL; as for `Nc1nc(Cl)cc(Oc2ccccc2F)n1`, 15.6 µg/mL (≈ 65.1 µM).

As for `O=C(Nc1nc2ccccc2s1)c1ccccc1[N+](=O)[O-]`, the solubility (kinetic) is 2.9 µg/mL (≈ 9.69 µM). For `COc1ccc(S(=O)(=O)N2CCCc3ccccc32)cc1OC` the value was 28.4 µg/mL (≈ 85.2 µM). For `O=C(O)c1cccnc1Sc1ccccc1Cl` the value was 37.6 µg/mL (≈ 142 µM); for `COc1cc(/C=C/C(=O)OCC(=O)NCc2ccc3c(c2)OCO3)cc(OC)c1OC`, 4.3 µg/mL (≈ 10 µM).
